# Columns and labels:
# Assay type in all cases: cell-based
# MCF-7 cells = experiment: Western-Blot analysis of Hsp90 client proteins and Hsp70; conditions: MCF-7, 36 h
# Procedure: MCF-7 cells were pretreated with various concentrations of the test compounds. After stimulation, cells were collected; lysed in lysis buffer [50 mM Tris-Cl, pH 7.6, 150 Mm NaCl, 1 mM EDTA, 1% (m/v) Nonidet P-40 (NP-40), 0.2 mM Phenylmethanesulfonyl fluoride (PMSF), 0.1 mM NaF and 1.0 mM dithiothreitol (DTT)], and the supernatant was obtained after centrifugation at 13,000× g for 10 min at 4°C. The concentration of protein in the supernatants was measured by the bicinchoninic acid (BCA) assay. Then equal amounts of protein (50 μg) were separated by 8% or 10% sodium dodecyl sulfate polyacrylamide gel electrophoresis (SDS-PAGE) and transferred onto the PVDF membranes (Millipore, Billerica, MA). The blots were incubated with specific antibodies against the indicated primary antibodies overnight at 4°C followed by IRDyeTM800-conjugated secondary antibody for 1 h at 37°C. Detection was performed by the Odyssey Infrared Imaging System (LI-COR; Lincoln, NE). All blots were stripped and incubated with polyclonal anti-β-actin antibody to ascertain equal loading of proteins.
# SKBR3 = experiment: Cell morphological assessment (DAPI staining, apoptosis); conditions: SK-BR3, 2, 5, 10 μM, 24 h
# Procedure: (§1) To detect morphological evidence of apoptosis, HCT116, MCF-7 and SKBR3 cell nuclei were visualized following DNA staining with the fluorescent dye DAPI. Briefly, cells were seeded at a concentration of 1×10^5 cells/well in 6-well tissue culture plates and treated with indicated concentration of S13. At the end of incubation, the morphology of cells was monitored under an inverted light microscope. Cells were then fixed with 4% paraform for 20 min and washed with PBS, and then incubated with DAPI (1 μg/ml) for 10 min. After washed with PBS, cells were observed using fluorescent microscopy (Olympus, Japan) with a peak excitation wave length of 340 nm.
# HCT116 = experiment: as above; conditions: HCT116, 2, 5, 10 μM, 24 h
# Procedure: as §1
# MCF-7 = experiment: as above
# Procedure: as §1
compound,measurement,setting,value
COc1ccccc1N1CCN(CC(O)COCCOc2ccc(Br)cc2)CC1 (stereo not drawn) [Compound S13],Hsp70 expression,MCF-7 cells,up-regulates
same,"depletion of Hsp90-dependent client proteins (Her2, Src, Akt, ERK, c-Raf, Hif-1α)",MCF-7 cells,concentration-dependent
same,apoptosis-induced effects,SKBR3,dose-dependent
same,apoptosis-induced effects,HCT116,dose-dependent
same,apoptosis induced,"MCF-7; 10 μM, MCF-7 cells",over 50%
same,apoptosis-induced effects,"MCF-7; MCF-7, 2, 5, 10 μM, 24 h",dose-dependent

# — paper PMC3615092, “Identification, Design and Bio-Evaluation of Novel Hsp90 Inhibitors by Ligand-Based Virtual Screening” (PLoS ONE, 2013)
